Data reported in patent publication US8802678B2, “Carbonylated (aza) cyclohexanes as dopamine D3 receptor ligands” (Bioprojet, priority 2006, dated 2014).
Counter-ions that a name gives are not always drawn.

Row | Structure (SMILES) | melting point
1 | CC(=O)CN1CCC(CCN2CCN(c3ccc(F)c(C#N)c3Cl)CC2)CC1.Cl.Cl | 291 °C
2 | CC(=O)CN1CCC(CCN2CCN(c3ccccc3Cl)CC2)CC1.Cl.Cl | 265 °C
3 | CC(=O)CN1CCC(CCN2CCN(c3cccc(C#N)c3)CC2)CC1.Cl.Cl | 250 °C
4 | CC(=O)CN1CCC(CCN2CC=C(c3cccc(C)c3C)CC2)CC1.Cl.Cl | 310 °C
5 | CCc1cccc(C2=CCN(CC[C@H]3CC[C@H](NC(=O)CC#N)CC3)CC2)c1 | 158 °C
6 | CC(=O)CN1CCC(CCN2CCN(c3cccc(Cl)c3F)CC2)CC1.Cl.Cl | 270 °C
7 | N#CCC(=O)N[C@H]1CC[C@H](CCN2CC=C(c3cccc(C(F)(F)F)c3F)CC2)CC1 | 171 °C
8 | CC(=O)CN1CCC(CCN2CCN(c3cc(C)cc(C)c3)CC2)CC1.Cl.Cl | 275 °C
9 | CC(=O)CN1CCC(CCN2CCN(c3ccccc3C#N)CC2)CC1.Cl.Cl | 290 °C
10 | CC(=O)CN1CCC(CCN2CCN(c3cccc4ncccc34)CC2)CC1.Cl.Cl | 295 °C
11 | CC(=O)CN1CCC(CCN2CCN(c3cc(C(C)(C)C)cc(C(C)(C)C)c3)CC2)CC1.Cl.Cl | 308 °C
12 | CC(=O)CN1CCC(CCN2CCN(c3ccc(F)cc3)CC2)CC1.Cl.Cl | 270 °C
13 | CCOCC(=O)N[C@H]1CC[C@H](CCN2CC=C(c3ccc(Cl)cc3)CC2)CC1 | 149 °C
14 | N#CCCCC(=O)N[C@H]1CC[C@H](CCN2CC=C(c3ccc(Cl)cc3)CC2)CC1 | 198 °C
15 | CC(=O)CN1CCC(CCN2CCN(c3ccc(C)c(C)c3)CC2)CC1.Cl.Cl | 275 °C
16 | COc1c(Cl)cccc1N1CCN(CCC2CCN(CC(C)=O)CC2)CC1.Cl.Cl | 270 °C
17 | N#CCC(=O)N[C@H]1CC[C@H](CCN2CC=C(c3ccc(C(F)(F)F)cc3)CC2)CC1 | 217 °C
18 | O=C(N[C@H]1CC[C@H](CCN2CC=C(c3ccc(F)cc3F)CC2)CC1)C1=CCCC1 | 166 °C
19 | O=C(N[C@H]1CC[C@H](CCN2CC=C(c3ccccc3F)CC2)CC1)C1=CCCC1 | 192 °C
20 | N#CCCCC(=O)N[C@H]1CC[C@H](CCN2CC=C(c3cccc(C(F)(F)F)c3)CC2)CC1 | 102 °C
21 | CC(=O)C(=O)N1CCC(CCN2CCN(c3cccc4c3CCC4)CC2)CC1.Cl | 225 °C
22 | CCOc1ccccc1N1CCN(CCC2CCN(CC(C)=O)CC2)CC1.Cl.Cl | 271 °C

Row | Structure (SMILES) | melting point
23 | CCC(=O)C(=O)N1CCC(CCN2CCN(c3cccc4c3CCC4)CC2)CC1.Cl | 202 °C
24 | Cc1cc(C)cc(C2=CCN(CC[C@H]3CC[C@@H](NC(=O)CC#N)CC3)CC2)c1.Cl | 220 °C
25 | CC(=O)CN1CCC(CCN2CC=C(c3cc(C(F)(F)F)ccc3F)CC2)CC1.Cl.Cl | 282 °C
26 | CC(=O)CN1CCC(CCN2CCN(c3cccc(OC(C)C)c3)CC2)CC1.Cl.Cl | 237 °C
27 | N#CCC(=O)N[C@H]1CC[C@H](CCN2CC=C(c3cccc(C#N)c3)CC2)CC1 | 185 °C
28 | CC(=O)CN1CCC(CCN2CCN(c3cc(F)c(F)c(F)c3F)CC2)CC1.Cl.Cl | 235 °C
29 | CC(=O)CN1CCC(CCN2CCN(c3cc(F)c(C(F)(F)F)c(F)c3)CC2)CC1.Cl.Cl | 80 °C
30 | CC(=O)CN1CCC(CCN2CCN(c3cc(C(F)(F)F)nc(C(C)(C)C)n3)CC2)CC1.Cl.Cl.Cl | 287 °C
31 | CC(=O)CN1CCC(CCN2CCN(c3ccc(Cl)cc3Cl)CC2)CC1.Cl.Cl | 283 °C
32 | CC(=O)CN1CCC(CCN2CCN(c3cc(C)ccc3C)CC2)CC1.Cl.Cl | 350 °C
33 | CC(=O)CN1CCC(CCN2CCN(c3cc(C)cc(F)c3)CC2)CC1.Cl.Cl | 273 °C
34 | Cl.N#CCCC(=O)N1CCC(CCN2CC=C(c3cc(C(F)(F)F)ccc3F)CC2)CC1 | 150 °C
35 | CCc1ccccc1C1=CCN(CCC2CCN(CC(C)=O)CC2)CC1.Cl.Cl | 316 °C
36 | CCc1ccccc1C1=CCN(CC[C@H]2CC[C@H](NC(=O)CCCC#N)CC2)CC1 | 120 °C
37 | CC(=O)CN1CCC(CCN2CCN(c3cccc(CC(C)C)c3)CC2)CC1.Cl.Cl | 240 °C
38 | COCCCC(=O)N[C@H]1CC[C@H](CCN2CC=C(c3ccc(F)cc3)CC2)CC1 | 201 °C
39 | N#CCC(=O)N[C@H]1CC[C@H](CCN2CC=C(c3cccc(C(F)(F)F)c3)CC2)CC1 | 149 °C
40 | CC(=O)CN1CCC(CCN2CCN(c3cccc(Cl)c3Cl)CC2)CC1 (as salt: hydrochloride) [Example 737, 1-(4-{2-[4-(2,3-Dichlorophenyl)piperazin-1-yl]ethyl}piperidin-1-yl)propan-2-one, dihydrochloride] | 281 °C
41 | Cl.Cl.N#Cc1cccc(N2CCN(CC[C@H]3CC[C@H](NC(=O)[C@@H]4CCCN4)CC3)CC2)c1 (stereo in doubt) | 314 °C
42 | Cl.Cl.O=C(N[C@H]1CC[C@H](CCN2CCN(c3ccc(F)cc3F)CC2)CC1)[C@@H]1CCCN1 (stereo in doubt) | 260 °C
43 | CO[C@H](C)C(=O)N[C@H]1CC[C@H](CCN2CCN(c3ccccc3F)CC2)CC1 (stereo in doubt) [Example 75, N-(4-{2-[4-(2-Fluorophenyl)-piperazin-1-yl]ethyl}cyclohexyl)-2-methoxypropanamide] | 162 °C
44 | CC(=O)CN1CCC(CCN2CCN(c3cccc(Cl)c3Cl)CC2)CC1 [Example 21, 1-(4-{2-[4-(2,3-Dichlorophenyl)piperazin-1-yl]ethyl}piperidin-1-yl)propan-2-one] | 87 °C

Next, values leading:

Row | melting point | Structure (SMILES)
45 | 245 °C | CC(C)(C)OC(=O)CN1CCC(CCN2CCN(c3cccc(C(F)(F)F)c3)CC2)CC1.Cl.Cl
46 | 219 °C | COc1cccc(N2CCN(CC[C@H]3CC[C@H](NC(=O)CC#N)CC3)CC2)c1.Cl
47 | 278 °C | Cl.N#CCC(=O)N[C@H]1CC[C@H](CCN2CCN(c3ccccc3C(F)(F)F)CC2)CC1
48 | 240 °C | CCOC(=O)CN1CCC(CCN2CCN(c3cccc(C(F)(F)F)c3)CC2)CC1.Cl.Cl
49 | 143 °C | COCCNC(=O)C[C@H]1CC[C@H](CCN2CCN(c3cccc(C(F)(F)F)c3)CC2)CC1.Cl
50 | 265 °C | Cl.Cl.O=C(CN1CCC(CCN2CCN(c3cccc(C(F)(F)F)c3)CC2)CC1)c1ccc(F)cc1
51 | 266 °C | CCc1cccc(N2CCN(CCC3CCN(CC(C)=O)CC3)CC2)c1.Cl.Cl
52 | 260 °C | CC(=O)CN1CCC(CCN2CCN(c3cccc(C)c3)CC2)CC1.Cl.Cl
53 | 217 °C | COCC(=O)N[C@H]1CC[C@H](CCN2CCN(c3cccc(C(F)(F)F)c3)CC2)CC1.Cl
54 | 248 °C | Cl.N#CCCCC(=O)N[C@H]1CC[C@H](CCN2CCN(c3ccccc3C(F)(F)F)CC2)CC1
55 | 184 °C | CCOCC(=O)N[C@H]1CC[C@H](CCN2CCN(c3cccc(C(F)(F)F)c3)CC2)CC1.Cl
56 | 265 °C | CC(=O)CN1CCC(CCN2CCN(c3cccc(C(F)F)c3)CC2)CC1.Cl.Cl
57 | 266 °C | CC(=O)CN1CCC(CCN2CCN(c3ccc(F)c(C(F)(F)F)c3)CC2)CC1.Cl.Cl
58 | 289 °C | CC(=O)CN1CCC(CCN2CCN(c3cc(Cl)cc(C(F)(F)F)c3)CC2)CC1.Cl.Cl
59 | 257 °C | CC(=O)CN1CCC(CCN2CCN(c3cccc(C(C)(C)C)c3)CC2)CC1.Cl.Cl
60 | 299 °C | CC(=O)CN1CCC(CCN2CCN(c3cc(C(F)(F)F)ccc3Cl)CC2)CC1.Cl.Cl
61 | 164 °C | COCCCC(=O)N[C@H]1CC[C@H](CCN2CC=C(c3cc(C(F)(F)F)ccc3F)CC2)CC1
62 | 160 °C | N#CCC(=O)CN1CCC(CCN2CCN(c3cccc(C(F)(F)F)c3)CC2)CC1 (as salt: hydrochloride)
63 | 196 °C | CNC(=O)CC1CCC(CCN2CCN(c3cccc(C(F)(F)F)c3)CC2)CC1 (mixture of isomers) [Example 295, N-Methyl-2-(4-{2-[4-(3-trifluoromethylphenyl)piperazin-1-yl]ethyl}cyclohexyl)acetamide cis/trans 50/50]
64 | 274 °C | Cl.Cl.O=C(N[C@H]1CC[C@H](CCN2CCN(c3cc(C(F)(F)F)ccc3F)CC2)CC1)[C@@H]1CCCN1 (stereo in doubt)
65 | 159 °C | N#C[C@@H]1CC1C(=O)N[C@H]1CC[C@H](CCN2CCN(c3cccc(C(F)(F)F)c3)CC2)CC1 (stereo in doubt) [Example 324, 2-Cyano-cyclopropanecarboxylic acid (4-{2-[4-(3-trifluoromethylphenyl)piperazin-1-yl]ethyl}cyclohexyl) amide]
66 | 160 °C | CC(=O)c1cccc(N2CCN(CC[C@H]3CC[C@H](NC(=O)CC#N)CC3)CC2)c1 [Example 7, N-(4-{2-[4-(3-acetylphenyl)piperazin-1-yl]ethyl}cyclohexyl)-2-cyanoacetamide trans/cis 80/20]
67 | 114 °C | CC(=O)CN1CCC(CCN2CCN(c3cccc(Cl)c3)CC2)CC1 [Example 29, 1-(4-{2-[4-(3-Chlorophenyl)-piperazin-1-yl]ethyl}piperidin-1-yl)propan-2-one]
68 | 134 °C | O=C(N[C@H]1CC[C@H](CCN2CCN(c3cccc(C(F)(F)F)c3)CC2)CC1)C(F)(F)F [Example 38, 2,2,2-Trifluoro-N-(4-{2-[4-(3-trifluoromethylphenyl)piperazin-1-yl]ethyl}cyclohexyl)acetamide]
69 | 135 °C | COC(=O)N[C@H]1CC[C@H](CCN2CCN(c3cccc(C(F)(F)F)c3)CC2)CC1 [Example 39, (4-{2-[4-(3-Trifluoromethyl-phenyl)piperazin-1-yl]ethyl}cyclo-hexyl)carbamic acid methyl ester]
70 | 135 °C | O=C(N[C@H]1CC[C@H](CCN2CCN(c3cccc(C(F)(F)F)c3)CC2)CC1)C1CCCO1 (some centres unmarked) [Example 40, Tetrahydrofuran-2-carboxylic acid (4-{2-[4-(3-trifluoromethylphenyl)piperazin-1-yl]ethyl}cyclohexyl)amide]
71 | 123 °C | COCC(=O)N[C@H]1CC[C@H](CCN2CCN(c3cccc(C(F)(F)F)c3)CC2)CC1 [Example 41, 2-Methoxy-N-(4-{2-[4-(3-trifluoromethylphenyl)piperazin-1-yl]ethyl}cyclohexyl)acetamide]
